Results: EPA's ToxValDB 9.5 (doi:10.2903/j.efsa.2010.1554)
In brackets after ≈: the same amount, converted by molar mass.

Assays:
Rattus norvegicus = details: for NOAEL: reproduction developmental
Apis mellifera = details: acute; duration: 48 hours; dermal; mortality
Daphnia magna = details: chronic/long-term; duration: 21 days; reproduction
Anas platyrhynchos = details: for LD50: oral, mortality
Canidae = details: chronic; duration: 1 years; oral; Dog Other; organ weight
Colinus virginianus = details: acute, oral, mortality

COc1cc(OC)nc(NC(=O)NS(=O)(=O)c2c(-c3nnn(C)n3)cnn2C)n1 [Azimsulfuron]
LC50 (Oncorhynchus mykiss; acute, duration: 96 hours, mortality): 154 µg/mL (≈ 363 µM)
NOEC (Oncorhynchus mykiss; chronic/long-term, duration: 90 days, time to hatch): 6.3 mg/L
LD50 (Rattus norvegicus; acute, oral, mortality): > 5000 mg/kg-day
NOAEL (Rattus norvegicus; organ weight): 9.6 mg/kg-day
NOAEL (Rattus norvegicus; reproduction): 76.6 mg/kg-day
LD50 (Apis mellifera): > 25 µg/piece
NOEC (Daphnia magna): 5.4 mg/L
LD50 (Anas platyrhynchos; acute, unspecified): > 2250 mg/kg-day
NOEL (Anas platyrhynchos; reproductive): 172 mg/kg-day
LD50 (Anas platyrhynchos; short-term, feed): > 2040 mg/kg-day
NOAEL (Canidae): 17.9 mg/kg-day
LD50 (Colinus virginianus; diet): > 3150 mg/kg-day
LD50 (Colinus virginianus): > 2250 mg/kg-day
LC50 (Tagia sp.; acute, duration: 14 days, mortality): > 1000 mg/kg
NOEC (Tagia sp.; chronic/long-term, duration: 56 days, reproduction): 12.5 mg/kg
